Test results as given in the NIST ThermoML archive (doi:10.1016/j.jct.2009.08.010).
± gives the expanded uncertainty stated by the source.

Assay: molar enthalpy of transition or fusion
Settings: 298.15 K; Crystal; Flow calorimetry

With `Cc1cccc2c1sc1ccccc12` [4-methyldibenzothiophene] the “molar enthalpy of transition or fusion” value was 21.6 ± 0.335 kcal/mol.
